Results reported in ChEMBL document CHEMBL5226355, “Design and Synthesis of Indenoisoquinolines Targeting Topoisomerase I and Other Biological Macromolecules for Cancer Chemotherapy” (J Med Chem, 2021).
pIC50: −log10 of the molar value.

What was measured:
Leishmania infantum [1] = test: Antileishmanial activity against Leishmania infantum promastigote infected in BALB/c mouse assessed as reduction in parasite burden in spleen at 2.5 mg/kg, iv administered once every other day for 15 days; type: functional; parameters: scale not given: the % may be the effect or the level left; conditions: time 15 day
Leishmania infantum [2] = test: Antileishmanial activity against Leishmania infantum promastigote infected in BALB/c mouse assessed as reduction in parasite burden in liver at 2.5 mg/kg, iv administered once every other day for 15 days; type: functional; parameters: scale not given: the % may be the effect or the level left; conditions: time 15 day
KB [3] = test: Cytotoxicity against human KB cells; type: functional, cell-based
KB [4] = test: Cytotoxicity against FR-knockdown human KB cells; type: functional, cell-based
Leishmania infantum [5] = test: Antileishmanial activity against Leishmania infantum promastigotes BCN150; type: functional, organism-based

In the case of O=C1c2ccccc2-c2c1c1ccc([N+](=O)[O-])cc1c(=O)n2CCCN1CCOCC1, the Activity (Leishmania infantum [1]) was >80% and the Activity (Leishmania infantum [2]) was >80%.

Compound CCOC(c1ccc(COCC(=O)NCCOCCOCCOCCOCCOCCNC(=O)CC[C@H](NC(=O)c2ccc(NCc3cnc4nc(N)nc(O)c4n3)cc2)C(=O)O)cc1OC)n1cnc(CCn2c3c(c4ccccc4c2=O)C(=O)c2ccccc2-3)c1 (some centres not stated) has a pIC50 (KB [3]) of 4.22 and a pIC50 (KB [4]) of 3.18.

Work on CC[C@@]1(O)C(=O)OCc2c1cc1n(c2=O)Cc2cc3ccccc3nc2-1 [CAMPTOTHECIN] yielded a pIC50 (Leishmania infantum [5]) of 5.95.

Compound COc1cc2c3c(n(CCCN4CCOCC4)c(=O)c2cc1OC)-c1cc2c(cc1C3=O)OCO2 [INDOTECAN] has a pIC50 (Leishmania infantum [5]) of 7.00.

NC[C@@H]1O[C@H](O[C@H]2[C@@H](O)[C@H](O[C@@H]3[C@@H](O)[C@H](N)C[C@H](N)[C@H]3O[C@H]3O[C@H](CO)[C@@H](O)[C@H](O)[C@H]3N)O[C@@H]2CO)[C@H](N)[C@@H](O)[C@@H]1O [PAROMOMYCIN] showed a pIC50 (Leishmania infantum [5]) of 4.37.
